# Assays:
# [1] = test system: HBV replication in HepAD38 cells; experiment: Anti-HBV replication assay in HepAD38 cells (QPCR of extracellular HBV DNA); assay type: cell-based, HBV (genotype D, serotype ayw); conditions: Hepatitis B virus, 168 h, 7 days incubation, extracellular HBV DNA by QPCR, read-out: Anti-HBV EC50
# In short: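 HepAD38 cells (HepG2 carrying a tet-repressible HBV genotype D genome) were seeded in tetracycline-free medium and treated next day with compound […] for 7 days. Supernatant HBV DNA was measured by QPCR against a standard curve; EC50 came from 4-parameter fits of inhibition versus DMSO control.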
# [2] = In vitro cytotoxicity assay (MTT cell viability) in HepG2 cells; assay type: cell-based, human; conditions: human
# In short: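 HepG2 cells incubated 7 days at 37 °C, 5% CO2 with compounds from 30 μM to 1.0 nM (8 half-log dilutions). Viability read as MTT formazan absorbance at 492 nm, normalised to vehicle controls; CC50 from 4-parameter non-linear regression.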
smiles,measurement,setting,value
"CC(=O)N1CC[C@H](NC(=O)C(=O)c2c(C)c(C(=O)Nc3ccc(F)c(C)c3)c(C)n2C)C1 [Example 666, (S)-5-(2-((1-acetylpyrrolidin-3-yl)amino)-2-oxoacetyl)-N-(4-fluoro-3-methylphenyl)-1,2,4-trimethyl-1H-pyrrole-3-carboxamide]",EC50,[1],< 50 nM
same,CC50 at 7 days,[2],> 30000 nM
"Cc1cc(NC(=O)c2c(C)c(C(=O)C(=O)NC3(C)CCN(C(=O)c4cn(C)nc4C(F)F)CC3)n(C)c2C)ccc1F [Example 708, 5-(2-((1-(3-(difluoromethyl)-1-methyl-1H-pyrazole-4-carbonyl)-4-methylpiperidin-4-yl)amino)-2-oxoacetyl)-N-(4-fluoro-3-methylphenyl)-1,2,4-trimethyl-1H-pyrrole-3-carboxamide]",EC50,[1],< 50 nM
same,CC50 at 7 days,[2],> 30000 nM
"Cc1noc([C@H](C)NC(=O)C(=O)c2c(C)c(C(=O)Nc3cnc(F)c(C)c3)c3n2CCCC3)n1 [Example 471, (S)-N-(6-fluoro-5-methylpyridin-3-yl)-2-methyl-3-(2-((1-(3-methyl-1,2,4-oxadiazol-5-yl)ethyl)amino)-2-oxoacetyl)-5,6,7,8-tetrahydroindolizine-1-carboxamide]",EC50,[1],500 to 1000 nM
same,CC50 at 7 days,[2],> 30000 nM
"CC(C)(C)NC(=O)C(=O)c1cc(C(=O)Nc2ccc(F)c(Cl)c2)c2n1CCC2 [Example 535, 5-(2-(tert-butylamino)-2-oxoacetyl)-N-(3-chloro-4-fluorophenyl)-2,3-dihydro-1H-pyrrolizine-7-carboxamide]",EC50,[1],< 50 nM
same,CC50 at 7 days,[2],500 to 4990 nM
"CC(C)(CO)CNC(=O)C(=O)c1c(Cl)c(C(=O)Nc2ccc(F)c(F)c2)c2n1CCC2 [Example 559, 6-chloro-N-(3,4-difluorophenyl)-5-(2-((3-hydroxy-2,2-dimethylpropyl)amino)-2-oxoacetyl)-2,3-dihydro-1H-pyrrolizine-7-carboxamide]",EC50,[1],50 to 499 nM
same,CC50 at 7 days,[2],> 30000 nM
"Cc1cc(NC(=O)c2c(C)c(C(=O)C(=O)NOCC(F)(F)F)n(C)c2C)ccc1F [Example 157, N-(4-fluoro-3-methylphenyl)-1,2,4-trimethyl-5-(2-oxo-2-((2,2,2-trifluoroethoxy)amino)acetyl)-1H-pyrrole-3-carboxamide]",EC50,[1],50 to 499 nM
same,CC50 at 7 days,[2],> 30000 nM
"Cc1cc(NC(=O)c2c(C)c(C(=O)C(=O)N[C@H]3C[C@H](O)C3)n3c2CCCC3)ccc1F [Example 438, N-(4-fluoro-3-methylphenyl)-3-(2-(((1r,3r)-3-hydroxycyclobutyl)amino)-2-oxoacetyl)-2-methyl-5,6,7,8-tetrahydroindolizine-1-carboxamide]",EC50,[1],50 to 499 nM
same,CC50 at 7 days,[2],> 30000 nM
"Cc1cc(NC(=O)c2c(C)c(C(=O)C(=O)NC(C)c3nn[nH]n3)n(C)c2C)ccc1F (centres unmarked) [Example 79, 5-(2-((1-(2H-tetrazol-5-yl)ethyl)amino)-2-oxoacetyl)-N-(4-fluoro-3-methylphenyl)-1,2,4-trimethyl-1H-pyrrole-3-carboxamide]",EC50,[1],50 to 499 nM
same,CC50 at 7 days,[2],> 30000 nM
"Cc1cc(NC(=O)c2c(C)c(C(=O)C(=O)N[C@H](C(=O)O)[C@H](C)O)n(C)c2C)ccc1F [Example 51, (2-(4-((4-fluoro-3-methylphenyl)carbamoyl)-1,3,5-trimethyl-1H-pyrrol-2-yl)-2-oxoacetyl)-L-allothreonine]",EC50,[1],50 to 499 nM
same,CC50 at 7 days,[2],> 30000 nM
"O=C(NC1(CO)CC(F)(F)C1)C(=O)c1c(Cl)c(C(=O)Nc2ccc(F)c(Cl)c2)c2n1CCC2 [Example 580, 6-chloro-N-(3-chloro-4-fluorophenyl)-5-(2-((3,3-difluoro-1-(hydroxymethyl)cyclobutyl)amino)-2-oxoacetyl)-2,3-dihydro-1H-pyrrolizine-7-carboxamide]",EC50,[1],< 50 nM
same,CC50 at 7 days,[2],5000 to 30000 nM
"Cc1cc(NC(=O)c2c(Cl)c(C(=O)C(=O)N[C@H](C)C(F)(F)F)n3c2CCC3)cnc1F [Example 576, (R)-6-chloro-N-(6-fluoro-5-methylpyridin-3-yl)-5-(2-oxo-2-((1,1,1-trifluoropropan-2-yl)amino)acetyl)-2,3-dihydro-1H-pyrrolizine-7-carboxamide]",EC50,[1],50 to 499 nM
same,CC50 at 7 days,[2],5000 to 30000 nM
"Cc1cc(NC(=O)c2c(C)c(C(=O)C(=O)NC(C)(C)CO)n(CCF)c2C)cnc1F [Example 222, N-(6-fluoro-5-methylpyridin-3-yl)-1-(2-fluoroethyl)-5-(2-((1-hydroxy-2-methylpropan-2-yl)amino)-2-oxoacetyl)-2,4-dimethyl-1H-pyrrole-3-carboxamide]",EC50,[1],> 1000 nM
same,CC50 at 7 days,[2],> 30000 nM
"Cc1cc(NC(=O)c2c(C)c(C(=O)C(=O)N[C@H]3C4CC5CC3C[C@](O)(C5)C4)n(CCF)c2C)ccc1F [Example 118, N-(4-fluoro-3-methylphenyl)-1-(2-fluoroethyl)-5-(2-(((1R,2s,3S,5s,7s)-5-hydroxyadamantan-2-yl)amino)-2-oxoacetyl)-2,4-dimethyl-1H-pyrrole-3-carboxamide]",EC50,[1],< 50 nM
same,CC50 at 7 days,[2],> 30000 nM
"Cc1cc(NC(=O)c2c(C)c(C(=O)C(=O)N[C@@H]3c4ccccc4C[C@H]3O)n(C)c2C)ccc1F [Example 261, N-(4-fluoro-3-methylphenyl)-5-(2-(((1R,2R)-2-hydroxy-2,3-dihydro-1H-inden-1-yl)amino)-2-oxoacetyl)-1,2,4-trimethyl-1H-pyrrole-3-carboxamide]",EC50,[1],< 50 nM
same,CC50 at 7 days,[2],500 to 4990 nM
"Cc1cc(NC(=O)c2c(C)c(C(=O)C(=O)N[C@H]3CCc4nc(N)sc4C3)n(C)c2C)ccc1F [Example 75, (S)-5-(2-((2-amino-4,5,6,7-tetrahydrobenzo[d]thiazol-6-yl)amino)-2-oxoacetyl)-N-(4-fluoro-3-methylphenyl)-1,2,4-trimethyl-1H-pyrrole-3-carboxamide]",EC50,[1],< 50 nM
same,CC50 at 7 days,[2],5000 to 30000 nM
"Cc1cc(NC(=O)c2c(C)c(C(=O)C(=O)NC3(C(F)(F)F)CCC3)n(C)c2C)ccc1F [Example 236, N-(4-fluoro-3-methylphenyl)-1,2,4-trimethyl-5-(2-oxo-2-((1-(trifluoromethyl)cyclobutyl)amino)acetyl)-1H-pyrrole-3-carboxamide]",EC50,[1],< 50 nM
same,CC50 at 7 days,[2],5000 to 30000 nM
"Cc1cc(NC(=O)c2c(C)c(C(=O)C(=O)Nc3ccc(F)cn3)n(C)c2C)cnc1F [Example 338, N-(6-fluoro-5-methylpyridin-3-yl)-5-(2-((5-fluoropyridin-2-yl)amino)-2-oxoacetyl)-1,2,4-trimethyl-1H-pyrrole-3-carboxamide]",EC50,[1],500 to 1000 nM
same,CC50 at 7 days,[2],> 30000 nM
"Cc1cc(NC(=O)c2c(C)c(C(=O)C(=O)N[C@H]3COC[C@@H]3N3CCOCC3)n(C)c2C)ccc1F [Example 711, N-(4-fluoro-3-methylphenyl)-1,2,4-trimethyl-5-(2-(((3R,4R)-4-morpholinotetrahydrofuran-3-yl)amino)-2-oxoacetyl)-1H-pyrrole-3-carboxamide]",EC50,[1],< 50 nM
same,CC50 at 7 days,[2],> 30000 nM
"Cc1c(C(=O)Nc2ccnc(F)c2)c(C)n(C)c1C(=O)C(=O)NC(C)(C)CO [Example 133, N-(2-fluoropyridin-4-yl)-5-(2-((1-hydroxy-2-methylpropan-2-yl)amino)-2-oxoacetyl)-1,2,4-trimethyl-1H-pyrrole-3-carboxamide]",EC50,[1],50 to 499 nM
same,CC50 at 7 days,[2],> 30000 nM

# From patent US20190375708A1 (VenatoRx Pharmaceuticals, Inc., priority 2018, published 2019)
